According to ChEMBL document CHEMBL3885881, “DrugMatrix”:

Species on record: Rattus norvegicus
Experiment: DrugMatrix - Regimen: Daily Repeat
Type: toxicity, organism-based, Sprague-Dawley
Set-up: regimen Daily Repeat, gender Male, age 6-8 weeks
Conditions: in vivo, po, route oral GAVAGE, […]; for BASOPHIL / EOSINOPHIL / ERYTHROCYTE COUNT / HEMATOCRIT / HEMOGLOBIN / LEUKOCYTE COUNT / LYMPHOCYTE / MEAN CORPUSCULAR HEMOGLOBIN / MEAN CORPUSCULAR HEMOGLOBIN CONCENTRATION / MEAN CORPUSCULAR VOLUME / MONOCYTE / NEUTROPHIL / PLATELET COUNT / ABSOLUTE BASOPHIL / ABSOLUTE EOSINOPHIL / ABSOLUTE LYMPHOCYTE / ABSOLUTE MONOCYTE / ABSOLUTE SEGMENTED NEUTROPHIL / NUCLEATED RED BLOOD CELLS: tissue Blood; for ALANINE AMINOTRANSFERASE / ALBUMIN / ALKALINE PHOSPHATASE / ASPARTATE AMINOTRANSFERASE / BLOOD UREA NITROGEN / CHLORIDE / CHOLESTEROL / CREATINE PHOSPHOKINASE / CREATININE / GLUCOSE / PHOSPHORUS / POTASSIUM / SODIUM / TOTAL BILIRUBIN / TOTAL PROTEIN / CARBON DIOXIDE / LACTATE DEHYDROGENASE / LIPASE / URIC ACID: tissue Plasma
[1] = 0 mg/kg, 120 h, dose level Control, time 5 day
[2] = 0 mg/kg, dose level Control, time 28 day
[3] = 11 mg/kg, 72 h, dose level High, time 3 day
[4] = 11 mg/kg, 120 h, dose level High, time 5 day

O=[N+]([O-])c1cc([As](=O)(O)O)ccc1O [ROXARSONE]
BASOPHIL [1]: 0.32%
EOSINOPHIL [1]: 0.58%
ERYTHROCYTE COUNT [1]: 7.26 x10E6/uL
HEMATOCRIT [1]: 46.94%
HEMOGLOBIN [1]: 14.9 G/DL
LEUKOCYTE COUNT [1]: 8.69 x10E3/uL
LYMPHOCYTE [1]: 81.52%
MEAN CORPUSCULAR HEMOGLOBIN [1]: 20.58 pg
MEAN CORPUSCULAR HEMOGLOBIN CONCENTRATION [1]: 31.8 G/DL
MEAN CORPUSCULAR VOLUME [1]: 64.68 fL
MONOCYTE [1]: 2.16%
NEUTROPHIL [1]: 13.88%
PLATELET COUNT [1]: 1531.2 x10E3/uL
ALANINE AMINOTRANSFERASE [1]: 33.2 u/L
ALBUMIN [1]: 3.74 G/DL
ALKALINE PHOSPHATASE [1]: 318 u/L
ASPARTATE AMINOTRANSFERASE [1]: 78.6 u/L
BLOOD UREA NITROGEN [1]: 6 mg/dL
CHLORIDE [1]: 108.4 MEQ/L
CHOLESTEROL [1]: 63 mg/dL
CREATINE PHOSPHOKINASE [1]: 251 u/L
CREATININE [1]: 0.18 mg/dL
GLUCOSE [1]: 125.6 mg/dL
PHOSPHORUS [1]: 12.06 mg/dL
POTASSIUM [1]: 5.92 MEQ/L
SODIUM [1]: 146.8 MEQ/L
TOTAL BILIRUBIN [1]: 0.16 mg/dL
TOTAL PROTEIN [1]: 6.06 G/DL
BASOPHIL [2]: 0.42%
EOSINOPHIL [2]: 0.58%
ERYTHROCYTE COUNT [2]: 8.06 x10E6/uL
HEMATOCRIT [2]: 48.44%
HEMOGLOBIN [2]: 16.34 G/DL
LEUKOCYTE COUNT [2]: 13.04 x10E3/uL
LYMPHOCYTE [2]: 85.12%
MEAN CORPUSCULAR HEMOGLOBIN [2]: 20.26 pg
MEAN CORPUSCULAR HEMOGLOBIN CONCENTRATION [2]: 33.74 G/DL
MEAN CORPUSCULAR VOLUME [2]: 60.1 fL
MONOCYTE [2]: 1.44%
NEUTROPHIL [2]: 11.28%
PLATELET COUNT [2]: 1226 x10E3/uL
ALANINE AMINOTRANSFERASE [2]: 28.6 u/L
ALBUMIN [2]: 3.94 G/DL
ALKALINE PHOSPHATASE [2]: 254.6 u/L
ASPARTATE AMINOTRANSFERASE [2]: 67.8 u/L
BLOOD UREA NITROGEN [2]: 10.4 mg/dL
CHLORIDE [2]: 104.6 MEQ/L
CHOLESTEROL [2]: 57.6 mg/dL
CREATINE PHOSPHOKINASE [2]: 224.8 u/L
CREATININE [2]: 0.4 mg/dL
GLUCOSE [2]: 140.6 mg/dL
PHOSPHORUS [2]: 10.66 mg/dL
POTASSIUM [2]: 6.58 MEQ/L
SODIUM [2]: 148.6 MEQ/L
TOTAL BILIRUBIN [2]: 0.24 mg/dL
TOTAL PROTEIN [2]: 6.64 G/DL
ABSOLUTE BASOPHIL [3]: 0 CELLS/uL
ABSOLUTE EOSINOPHIL [3]: 38.67 CELLS/uL
ABSOLUTE LYMPHOCYTE [3]: 12107.67 CELLS/uL
ABSOLUTE MONOCYTE [3]: 206 CELLS/uL
ABSOLUTE SEGMENTED NEUTROPHIL [3]: 1247.67 CELLS/uL
BASOPHIL [3]: 0%
EOSINOPHIL [3]: 0.33%
ERYTHROCYTE COUNT [3]: 6.03 x10E6/uL
HEMATOCRIT [3]: 38.2%
HEMOGLOBIN [3]: 14.6 G/DL
LEUKOCYTE COUNT [3]: 13.6 x10E3/uL
LYMPHOCYTE [3]: 89%
MEAN CORPUSCULAR HEMOGLOBIN [3]: 24.2 pg
MEAN CORPUSCULAR HEMOGLOBIN CONCENTRATION [3]: 38.2 G/DL
MEAN CORPUSCULAR VOLUME [3]: 63.27 fL
MONOCYTE [3]: 1.67%
NEUTROPHIL [3]: 9%
NUCLEATED RED BLOOD CELLS [3]: 0 /100WBC
PLATELET COUNT [3]: 1141 x10E3/uL
ALANINE AMINOTRANSFERASE [3]: 88 u/L
ALBUMIN [3]: 3.93 G/DL
ALKALINE PHOSPHATASE [3]: 483.33 u/L
ASPARTATE AMINOTRANSFERASE [3]: 108 u/L
BLOOD UREA NITROGEN [3]: 10.67 mg/dL
CARBON DIOXIDE [3]: 29.33 mmol/L
CHLORIDE [3]: 100.67 MEQ/L
CHOLESTEROL [3]: 66.67 mg/dL
CREATINE PHOSPHOKINASE [3]: 464.67 u/L
CREATININE [3]: 0.15 mg/dL
GLUCOSE [3]: 142.67 mg/dL
LACTATE DEHYDROGENASE [3]: 448 u/L
LIPASE [3]: 11.67 u/L
PHOSPHORUS [3]: 11.03 mg/dL
POTASSIUM [3]: 6.34 MEQ/L
SODIUM [3]: 143.37 MEQ/L
TOTAL BILIRUBIN [3]: 0.2 mg/dL
TOTAL PROTEIN [3]: 5.6 G/DL
URIC ACID [3]: 1.6 mg/dL
ABSOLUTE BASOPHIL [4]: 0 CELLS/uL
ABSOLUTE EOSINOPHIL [4]: 0 CELLS/uL
ABSOLUTE LYMPHOCYTE [4]: 14104 CELLS/uL
ABSOLUTE MONOCYTE [4]: 363 CELLS/uL
ABSOLUTE SEGMENTED NEUTROPHIL [4]: 1099.67 CELLS/uL
NUCLEATED RED BLOOD CELLS [4]: 0 /100WBC
CARBON DIOXIDE [4]: 29.67 mmol/L
LACTATE DEHYDROGENASE [4]: 358.67 u/L
LIPASE [4]: 11.33 u/L
URIC ACID [4]: 1.37 mg/dL
